# Assay results published in US6855536B2, “Materials and methods for the enhancement of effective root nodulation in legumes” (priority 2000, dated 2005).
# Entries after “also recorded” stand apart in the source; their conditions may differ.
# Experiments:
# nolA-lacZ fusion = assay: nolA-lacZ (nolA1,2,3-lacZ) fusion β-galactosidase assay in B. japonicum; assay type: cell-based, Bradyrhizobium japonicum; settings: for Induction of nolA expression (in words): B. japonicum harboring nolA-lacZ fusion
# Procedure: (§1) Bacterial Stains, plasmids and culture conditions. For routine bacterial growth, B. japonicum cells were maintained on RDY medium (So, J. -S. et al. [1987] Mol. Gen. Genet. 207:15-23). Bacteria were grown in minimal medium (Bergensen, F. J. [1961] Aust. J. Biol. Sci. 14:349-360) for β-galactosidase activity. As required, antibiotics were used at the following concentrations, Cm (30 μg/ml), Sm (100 μg/ml), Sp (100 μg/ml), Tc (100 μg/ml). The B. japonicum strains used in this study were Bj110-42, BJAlac12, BJAlac23, BJAlac13 and BJ110-1248-1, ZB977, SL101 and Bj110-573. These strains harbored the following translational fusions; BJ110-1248-1 (nodD2-lacZ, plasmid pRJ1248, Dockendorff et al. [1994] Mol. Plant-Microbe Interact. 7:596-602), ZB977 (nodY-lacZ, plasmid pZB32, Banfalvi et al. [1988] Mol. Gen. Genet. 214:420-424), SL101 (npt-lacZ, Yuen, J. P.-Y and G. Stacey [1996] Mol. Plant-Microbe Interact. 9:424-428), and Bj110-573 (nodC-lacZ, chromosomally integrated fusion, Dockendorff et al. [1994] Mol. Plant-Microbe Interact 7:596-602). Strains Bj110-42, BJAlac23, BJAlac12, BJAlac13 harbored nolA-lacZ translational fusions encoded on plasmids pBGALac1, pNMAlac23, pNMAlac13, pNMAlac12 respectively (Garcia et al. [1996] Mol. Plant-Microbe Interact. 9:625-635; Loh et al. [1999] J. Bacteriol. 181:1544-1554). Plasmid pNMAlac23 contained mutations to ATG2 and ATG3 of nolA and allowed the specific expression of NolA1-lacZ. In contrast, plasmids pNMAlac13 (mutations to ATG1 and ATG3) and pNMAlac12 (mutation to ATG1 and ATG3, Loh et al. [1999] J. Bacteriol. 181:1544-1554) only expressed NolA2-lacZ and NolA3-lacZ, respectively.
# Typically, B. japonicum cells are found in high population density in commercial inoculants. To determine if the bacterial nolA inducer was present in commercial inoculant, three soybean inoculants from two commercially available sources were extracted with butanol, and these extracts analyzed for their ability to induce the nolA-lacZ fusions.
# As shown in Tables 2-3 and FIG. 11C, an inducer of nolA-lacZ and nodD2-lacZ expression was detected in conditioned medium from B. japonicum cultures grown to a high population density. […] The nolA inducer present in the conditioned medium was lost after dialysis using a membrane with a cutoff at 3 kDa (Fisher Scientific, Pittsburgh, Pa.).
# CDF production = CDF production in B. japonicum cultures grown with iron; assay type: cell-based, Bradyrhizobium japonicum; settings: Fe^3+ added to B. japonicum cultures
# nodY-lacZ = nodY-lacZ fusion induction by genistein in B. japonicum; assay type: cell-based, Bradyrhizobium japonicum; settings: for Effect on nodY-lacZ expression: 0.025 μM genistein for five hours, with or without 500 μM FeCl3
# Procedure: as §1
# This view is supported experimentally by the following two results.
# The levels of nod gene expression were also found to be affected by IND-1.
# [1] = system: nodule occupancy by the NwsB mutant; assay: Nodule occupancy competition assay, NwsB mutant versus wild-type; assay type: in vivo, Glycine max; settings: 25 μM BEHP; NwsB mutant and USDA110 at different ratios; 21 days post inoculation
# Procedure: Different ratios of B. japonicum USDA110 and B. japonicum NwsB mutant were innoculated on soybean plants grown in growth pouches. At the time of innoculation, the root tip (RT) mark was noted on the outside of the pouches. Nodules were extracted 21 days post innoculation and the extracts were plated on RDY plates. Single colonies were picked and tested for streptomycin resistance (a marker for the NwsB mutant). (A) is above RT at time of innoculation; (B) below RT at time of innoculation.
# We have generated, by recombinant means, mutations in the nwsB gene. The NwsB mutant appears to be defective in the recognition of the quorum signal and we have performed plant tests with the mutant in competition assays with the wild-type bacteria. In these assays, the effect of IND-1 (BEHP) on the ability of the NwsB mutant to nodulate soybean in the presence of wild-type bacteria (at different cell ratios) was examined. […] Nodule occupancy was scored both above (treated area) and below (new root growth) the root tip mark at the time of inoculation. […] These studies were conducted using 25 μM levels of BEHP.
# [2] = system: nodulation of soybean by B. japonicum; assay: Soybean nodulation plant test in growth pouches; assay type: in vivo, Glycine max; settings: for Effect on nodulation of soybean (in words): B. japonicum cells pretreated 1 h, 10^7 cells per root, nodules counted 21 days post-inoculation
# Procedure: The significance of nod gene repression by both IND-1 and the quorum factor was also investigated in plant tests. Seeds of Glycine maxcv Essex were surface sterilized, placed in sterile growth pouches (Mega International, MN) and cultivated as described by Nieuwkoop et al. (Nieuwkoop et al. [1987] J. Bacteriol. 169:2631-2638). Each seedling was inoculated with 10^7 B. japonicum cells. Prior to inoculation of the roots, B. japonicum cells were incubated for 1 h with concentrated, conditioned medium that had been sterilized by filtration through a […] filter (Millipore, Bedford, Mass.). The conditioned medium was used at a final concentration of 10 μl per 1 ml of culture. At the time of inoculation, the location of the root tip was marked on the outside of the plastic growth pouch. Plants were watered with nitrogen free nutrient solution (Wacek and Brill [1976] Crop Sci. 15:519-523). At 21 days post-inoculation, the number of nodules on each root both above and below the root tip mark was recorded.
# NolA1-lacZ = NolA1-lacZ fusion β-galactosidase assay in B. japonicum; assay type: cell-based, Bradyrhizobium japonicum; settings: NolA3-lacZ fusions compared
# Procedure: as §1, with “Strains Bj110-42, BJAlac23, BJAlac12, BJAlac13 harbored nolA-lacZ translational fusions encoded on plasmids pBGALac1, pNMAlac23, pNMAlac13, pNMAlac12 respectively (Garcia et al. [1996] Mol. Plant-Microbe Interact. 9:625-635; Loh et al. [1999] J. Bacteriol. 181:1544-1554). Plasmid pNMAlac23 contained mutations to ATG2 and ATG3 of nolA and allowed the specific expression of NolA1-lacZ. In contrast, plasmids pNMAlac13 (mutations to ATG1 and ATG3) and pNMAlac12 (mutation to ATG1 and ATG3, Loh et al. [1999] J. Bacteriol. 181:1544-1554) only expressed NolA2-lacZ and NolA3-lacZ, respectively.” left out
# As shown in Tables 2-3 and FIG. 11C, an inducer of nolA-lacZ and nodD2-lacZ expression was detected in conditioned medium from B. japonicum cultures grown to a high population density. […]
# nodC-lacZ = nodC-lacZ fusion induction by genistein in B. japonicum Bj110-573; assay type: cell-based, Bradyrhizobium japonicum; settings: 0.025 μM genistein, 5 hours; cells harvested at high population densities (A600=1.62 or 3.22)
# Procedure: as §1, with “Plasmid pNMAlac23 contained mutations to ATG2 and ATG3 of nolA and allowed the specific expression of NolA1-lacZ. In contrast, plasmids pNMAlac13 (mutations to ATG1 and ATG3) and pNMAlac12 (mutation to ATG1 and ATG3, Loh et al. [1999] J. Bacteriol. 181:1544-1554) only expressed NolA2-lacZ and NolA3-lacZ, respectively.” left out
# [3] = listed as phthalic acid bis-(2-ethyl-hexyl) ester
smiles,measurement,setting,value
"[Cl][Fe]([Cl])[Cl] [Fe^3+, FeCl3]",Effect on nolA expression at high culture densities,nolA-lacZ fusion; increasing concentrations of FeCl3 for five hours,significantly reduced the expression of nolA expression
same,Effect on CDF production,CDF production,inhibit CDF production
same,Effect on nodY-lacZ expression,nodY-lacZ,corresponding increase in nodY-lacZ expression
same,Effect on nodY-lacZ expression,nodY-lacZ; listed as FeCl3,increase in the expression of a nodY-lacZ fusion protein
"CCCCC(CC)COC(=O)c1ccccc1C(=O)OCC(CC)CCCC (stereo not shown) [IND-1, phthalic acid bis-(2-ethyl-hexyl) ester]",Induction of nolA expression (in words),nolA-lacZ fusion,active on B. japonicum nolA-lacZ fusions; also recorded: capable of inducing nolA
same,Induction of nolA expression (in words),nolA-lacZ fusion; [3],potent inducer of nolA; also recorded: strong inducer of NolA expression
same,Percentage of nodules occupied by the NwsB mutant,[1],increase the percentage of nodules that were occupied by the NwsB mutant
same,Effect on nodulation of soybean (in words),[2],reduced nodulation efficiency
same,Effect on nodulation of soybean (in words),[2]; [3],inhibits nodulation
same,Nodule phenotype in the presence of BEHP,[2]; UV treated USDA61 A2 73 cells inoculated onto soybean roots,delayed nodule phenotype
same,Effect on nod gene (nodY-lacZ) induction by genistein (in words),"nodY-lacZ; B. japonicum at low population density, IND-1 in USDA110, USDA76, USDA31",reduced nodY-lacZ induction by genistein
same,"Which NolA form is affected (NolA1, NolA2, NolA3)",NolA1-lacZ,affect only NolA1 expression
"O=c1c(-c2ccc(O)cc2)coc2cc(O)cc(O)c12 [genistein, reference compound]",Induction of nolA expression (in words),nolA-lacZ fusion,failed to induced nolA expression
same,nodC-lacZ induction by genistein,nodC-lacZ,Little or no nodC induction
same,"Induction of nodY-lacZ, β-galactosidase activity","nodY-lacZ; 0.05 μM genistein for 5 h, with or without CM (A600 = 1.0), CPRG substrate, mean of two ± SD",366 ± 11 U
"O=c1c(-c2ccc(O)cc2)coc2cc(O)ccc12 [daidzein, reference compound]",Induction of nolA expression (in words),nolA-lacZ fusion,failed to induced nolA expression
